Data as given in US20030005484A1, “Microbiocidal and pesticidal aromatic aldehydes” (ProGuard, Inc., priority 1994, published 2003).
Where “and” joins values, the source holds several entries; their conditions need not be identical. Equal entries are not always repeated. Where two headings read alike, the source gives them in different places.

How the values were obtained:
phylloxera-biotype A = assay: greenhouse Merlot vines infested with phylloxera, leaf spray, disease rating of roots; type: in vivo, Daktulosphaira vitifoliae
Excerpt: For greenhouse tests, one year old potted V. vinifera cultivar merlot plants were used that had been obtained from Foundation Plant Material Service, University of California, Davis. The plants were potted in 10 cm diameter pots and were infested with phylloxera 5 weeks prior to treatment. At the time of spraying with a treatment solution, plant pots were placed in a plastic bag so that chemical runoff from the leaf sprays would not drip into the soil. The plants were sprayed to runoff with a household 1 liter-capacity plastic spray bottle. Plants were allowed to air dry outside and then replaced in the greenhouse. At intervals thereafter, the roots were separated from the potting mix and total phylloxera population estimated.

phylloxera Biotype A = assay: planter / field box vines, leaf spray, phylloxera population on roots; type: in vivo, Daktulosphaira vitifoliae; settings: for Number of phylloxera per root piece: Merlot, two weeks; for reduction of population versus control vines: field planter boxes, after two weeks; for phylloxera population, Mean ± 95% CI: boxed 1 year old Merlot
Excerpt: Planter boxes are wooden boxes with a top surface area of 1.5 m×1 m and are 1.5 m tall. They were filled with a clay-loam soil and each was planted to 4 one-year old Merlot plants in early spring, 1995. They were infested with biotype A phylloxera in May, 1995 by placing about 150 eggs adjacent to an attached root under the soil surface. The plants were irrigated weekly with a fine mist. Treatments were made at various times in July and August 1995 using the household 1 liter-capacity plastic spray bottles, spraying to runoff. At one or two weeks after treatment, plants root systems were removed from the soil and total phylloxera populations were estimated.

[1] = tested on: root-knot nematode, Meloidogyne javanica; type: in vivo
Description: In a double blind study, concentrations of the subject aldehyde compounds were tested for activity against root-knot nematode, Meloidogyne javanica. Nematodes were put in direct contact with the chemical and at 24 hour intervals, mortality was assessed both visually and by probing. Meloidogyne javanica were produced using hydroponics. The nematodes were harvested and used within 24 hours.
Approximately 100 nematodes in 0.07 mls of water were pipetted into a syracuse dish (Fisher) and 1 ml of test formulation was immediately pipetted into each dish. The dishes were then placed into plastic bags to retain moisture and prevent evaporation. Four syracuse dishes were used for each solution test formulation. […] Moving nematodes were counted as living.

Stubby Root nematode = assay: vineyard grape vines, nematode infestation: stubby root; type: in vivo
Description: The subject formulations were tested for ability to reduce grape vine infestation by root knot, ring, stubby root, and roll lesion nematodes. Grape vines (Harmony rootstock) in a vinyard were treated with 1000 ppm or 3000 ppm cinnamaldehyde in 2% Tween 80, the commercial anti-nematode agent Nemacur, or a formulation blank. The extent of nematode infestation was determined at the time of treatment and at 30 and 60 days post-treatment.

[2] = tested on: thrips insects (Frankliniella occidentalis); assay: residual activity on filter paper against thrips; type: in vivo; settings: residue on filter paper, rehydrated 24 and 72 hours after spraying; thrips mortality after one hour
Description: In the first experiment, two ml of two concentrations of CNMA (0.3 and 1%) were sprayed on filter paper (Whatman). As a negative control, two ml of water also were sprayed on filter paper. Twenty-four hours later, two ml of water were sprayed on treatment and control filter paper, which were then dried for 30 min. Approximately 30 thrips insects (Frankliniella occidentalis) were introduced and the number of F. occidentalis were observed after one hour. Mean mortality was calculated for each treatment.
After 72 hours, the treatment filter papers were flipped over and only the negative control filter paper and the filter paper treated with 1% CNMA were sprayed with 2 ml of water and allowed to dry for 30 minutes. Approximately 30 thrips were introduced to the two treated filter papers and after one hour the number of dead F. occidentalis were observed and the mean mortality calculated for each treatment. A similar assay was conducted using a-hexyl cinnamaldehyde. Mean mortality was higher for rehydrated filter papers compared to non-rehydrated filter papers over time.

pacific mites [3] = assay: pacific mites on Chardonnay grapevines; type: in vivo; settings: for PERCENT INHIBITION / POST-SPRAY MITES: 150 gal./acre, 4 days after spraying; for PRE-SPRAY MITES: baseline
Description: The effect of 0.3% and 0.6% cinnamic aldehyde on pacific mites on grapevine leaves was examined cinnamic aldehyde was diluted to 0.3% and 0.6% in water. Each formulation was sprayed onto a 1 acre block of Chardonnay wine grapes with a tractor-drawn 500 gal. hydraulic sprayer at 150 psi at a rate of 150 gal./acre. As a control, a 10-acre block of Chardonnay wine grapes was treated the same day as the test formulations with the conventional treatment (Omite) per label directions. The number of mites was counted the day prior to spraying and 4 days after spraying. […] In fact, both concentrations reduced the number of mites to a larger extent than the positive control, conventional treatment, Omite. The 0.6% rate nearly eliminated live mites on grapevines. […] The 0.6% was slightly beter than the 0.3 % cinnamic aldehyde with respect to powdery mildew control.

pacific mites [4] = assay: pacific mites on Chardonnay grapes, 0.4% spray; type: in vivo
Description: The effect of 0.4% cinnamic aldehyde on powdery mildew and pacific mites on grapes was examined. Cinnamic aldehyde was diluted to 0.4% in water and sprayed onto a 1.8 acre test plot of Chardonnay grapevines with a tractor drawn, PTO powered sprayer, spraying at approximately 100 psi at a rate of 150 gal./acre. A 3 acre untreated plot served as a negative control. Additional controls included treatment of a 3.8 acre plot with stylet oil and a plot treated with a mix of Rubigan, Omite, and stylet oil, which cost appriximately $60.00/acre. Spray cards were placed randomly through the test block. Ten fruit clusters, which were generally completely covered with powdery mildew, in each of the four fields were flagged. […] Therefore, cinnamic aldehyde was effective at controlling both powdery mildew and pacific mites on grapes.

[5] = CNMA 0.4% in water, 150 gal./acre, controls stylet oil, chemical mix

O=C/C=C/c1ccccc1 [cinnamic aldehyde]
Average disease rating (0-4) (phylloxera-biotype A; CNMA 10,000 ppm in 6% NaHCO3 and 2% Tween-80, leaves to run-off, week 1 (7 day evaluation)): 0^2(3)^3 and 0 | Average disease rating (0-4) (phylloxera-biotype A; Experiment 2, 2500 ppm CNMA leaf treatment, 1 day post treatment): 4 (3) | Average disease rating (0-4) (phylloxera-biotype A; Experiment 2, 2500 ppm CNMA leaf treatment, 2 days post treatment): 0.3(3) | Average disease rating (0-4) (phylloxera-biotype A; Experiment 2, 2500 ppm CNMA leaf treatment, 7 days post treatment): 0.3(3) | insects on roots after leaf spray (phylloxera-biotype A; one-year-old greenhouse Merlot vines sprayed to run-off, after two weeks): disappeared | Number of phylloxera per root piece (phylloxera Biotype A; 1 K CNMA, one value per plant): 133 and 72 and 95 | Number of phylloxera per root piece (phylloxera Biotype A; 20 K (20,000 ppm CNMA in 6% NaHCO3 and 2% Tween-80)): 16 | reduction of population versus control vines (phylloxera Biotype A; 1,000 ppm leaf spray): 92% | reduction of population versus control vines (phylloxera Biotype A; 10,000 ppm leaf spray): 95% | phylloxera population, Mean ± 95% CI (phylloxera Biotype A; foliage to runoff, 1000 ppm, Exp. 1): 100 ± 31 | phylloxera population, Mean ± 95% CI (phylloxera Biotype A; foliage to runoff, 1000 ppm, Exp. 2): 58 ± 17 | phylloxera population, Mean ± 95% CI (phylloxera Biotype A; foliage to runoff, 10,000 ppm, Exp. 1): 60 ± 37 | phylloxera population, Mean ± 95% CI (phylloxera Biotype A; foliage to runoff, 10,000 ppm, Exp. 2): 43 ± 56 | effect on mortality ([1]; 0.1 ppm in vehicle): no effect on mortality | effect on mortality ([1]; 1 ppm in vehicle): no effect on mortality | nematodes dead ([1]; 10 ppm in vehicle, 24 hours): 0% | nematodes dead ([1]; 10 ppm in vehicle, 48 hours): 15% | nematodes dead ([1]; 10 ppm in vehicle, 72 hours): 17.5% | nematodes dead ([1]; 10 ppm in vehicle, 96 hours): 22.5% | nematodes dead ([1]; 10 ppm in vehicle, 108 hours): 27.5% | nematodes dead ([1]; 10 ppm in vehicle, 132 hours): 52.5% | nematodes dead ([1]; 10 ppm in vehicle, 156 hours): 52.5% | nematodes dead ([1]; greater than 100 ppm in vehicle (2% Tween 80, 6% NaHCO3), 24 hours): 100% | Stubby Root, nematodes per 250 cc soil (Stubby Root nematode; 1000 ppm in 2% Tween 80, 30 days post-treatment): 45 per 250 cc soil | Stubby Root, nematodes per 250 cc soil (Stubby Root nematode; 1000 ppm in 2% Tween 80, 60 days post-treatment): 36.2 per 250 cc soil | Stubby Root, nematodes per 250 cc soil (Stubby Root nematode; 1000 ppm in 2% Tween 80, day 0 (time of treatment)): 13.8 per 250 cc soil | Stubby Root, nematodes per 250 cc soil (Stubby Root nematode; 3000 ppm in 2% Tween 80, 30 days post-treatment): 8.8 per 250 cc soil | Stubby Root, nematodes per 250 cc soil (Stubby Root nematode; 3000 ppm in 2% Tween 80, 60 days post-treatment): 43.5 per 250 cc soil | Stubby Root, nematodes per 250 cc soil (Stubby Root nematode; 3000 ppm in 2% Tween 80, day 0 (time of treatment)): 0.8 per 250 cc soil | residual activity [2]: have residual activity | PERCENT INHIBITION (pacific mites [3]; 0.3% CNMA in water): 89% | POST-SPRAY MITES (pacific mites [3]; 0.3% CNMA in water): 4.5 | PERCENT INHIBITION (pacific mites [3]; 0.6% CNMA in water): 98% | POST-SPRAY MITES (pacific mites [3]; 0.6% CNMA in water): 0.5 | PRE-SPRAY MITES (pacific mites [3]; day prior to spraying 0.3% CNMA): 41.4 | PRE-SPRAY MITES (pacific mites [3]; day prior to spraying 0.6% CNMA): 32.5 | % INHIBITION (MITES) (pacific mites [4]; [5]): 96% | MITES POST-SPRAY (pacific mites [4]; [5]): 1.6 | MITES PRE-SPRAY (pacific mites [4]; baseline, CNMA 0.4% plot, stylet oil plot, chemical mix plot): 36
